# Test results reported in US12024521B2, “Isoquinoline derivatives, methods of synthesis and uses thereof” (priority 2020, dated 2024).
# System: HIV-1 (NL4-3 RLuc reporter virus in MT-2 cells)
# Experiment: Inhibition of HIV-1 replication, MT-2 spreading infection assay
# Format: cell-based
# Settings: Human immunodeficiency virus 1, NL43, MT2, 96 h, read-out: HIV activity (μM)
# Protocol: Inhibition of HIV-1 viral replication was assayed in a spreading infection using MT-2 cells and NL4-3 RLuc reporter virus. For dose-response curves, compounds were initially diluted with DMSO to 100-fold the starting concentration in a 96-well plate and subjected to a series of 3-fold dilutions in DMSO for a total of eight or nine dilutions. If a single compound concentration was tested, the compound was diluted to 100-fold the desired concentration in DMSO. Compounds were then diluted 50-fold with infection media prepared by diluting NL4-3 RLuc virus stock to 400 IU/100 ul with complete RPMI. Then, 100 ul of 50-fold-diluted compound was transferred to 20,000 MT-2 cells that were preceded in 96-well plates in 100 ul of complete RPMI for a final volume of 200 ul, followed by incubation at 37° C. for 96 h. The final MOI in infected plates was 0.02, and the final DMSO concentration in all wells was 1%. All assays were run with three replicates. For each replicate, one well received DMSO only, and one well received medium only for normalization and background correction. […] Plates were read on a luminescence plate reader (Synergy H1; BioTek Instruments, Inc.).
row,SMILES,IC50
1,"COc1cc2c(cc1OCc1ccccc1)CCN(O)C2/C=C/c1cc2c(cc1C)OCO2 (stereo not drawn) [Compound 36, 6-benzyloxy-2-hydroxy-7-methoxy-1-[(E)-2-(6-methyl-1,3-benzodioxol-5-yl)vinyl]-3,4-dihydro-1H-isoquinoline]",0.053 µM
2,"CCC1Cc2cc(OCc3ccccc3)c(OC)cc2C(/C=C/c2cc3c(cc2C)OCO3)N1 (stereo not drawn) [Compound 24, 6-Benzyloxy-7-methoxy-3-ethyl-1-[(E)-2-(6-methyl-1,3-benzodioxol-5-yl)vinyl]-1,2,3,4-tetrahydroisoquinoline]",0.5 µM
3,"COc1cc2c(cc1OCc1ccccc1)C(C)CNC2/C=C/c1cc2c(cc1C)OCO2 (stereo not drawn) [Compound 12, 6-Benzyloxy-7-methoxy-4-methyl-1-[(E)-2-(6-methyl-1,3-benzodioxol-5-yl)vinyl]-1,2,3,4-tetrahydroisoquinoline]",1.4 µM
4,"COc1c(OCc2ccccc2)cc2c(c1OC)C(/C=C/c1cc3c(cc1C)OCO3)NCC2 (stereo not drawn) [Compound 10, 6-benzyloxy-7,8-dimethoxy-1-[(E)-2-(6-methyl-1,3-benzodioxol-5-yl)vinyl]-1,2,3,4-tetrahydroisoquinoline]",2.5 µM
5,"COc1cc2c(c(OC)c1OCc1ccccc1)CCNC2/C=C/c1cc2c(cc1C)OCO2 (stereo not drawn) [Compound 6, 6-benzyloxy-5,7-dimethoxy-1-[(E)-2-(6-methyl-1,3-benzodioxol-5-yl)vinyl]-1,2,3,4-tetrahydroisoquinoline]",0.37 µM
6,COc1cc2c(cc1OCc1ccccc1)C(Cl)CNC2/C=C/c1cc2c(cc1C)OCO2 (stereo not drawn) [Compound 61],2.5 µM
